Measured values from the Kinase Knowledgebase extract (Sharma et al. 2016).

target: CDK2 (UniProt P24941); test: Enzyme Assay

| IC50 [nM] | SMILES |
| --- | --- |
| 15 | N[C@H]1CC[C@H](Oc2cc(Nc3ccc(S(=O)(=O)c4ccccc4)cc3)n3ncc(Br)c3n2)CC1 |
| 3090 | CC(C)c1cnn2c(Nc3ccc(S(=O)(=O)N(C)C)cc3)cc(Nc3ccncc3)nc12 |
| 302 | CC(C)c1cnn2c(Nc3ccc(S(=O)(=O)N(C)CCO)cc3)cc(NC3CCCC3)nc12 |
| 15 | N[C@H]1CC[C@H](Nc2cc(Nc3ccc(S(=O)(=O)c4ccccc4)cc3)n3ncc(Cl)c3n2)CC1 |
| 270 | CC(C)c1cnn2c(Nc3ccc(S(=O)(=O)N4CCCC4)cc3)cc(Cl)nc12 |
| 220 | CC(C)c1cnn2c(Nc3ccc(S(C)(=O)=O)cc3)cc(Cl)nc12 |
| 530 | CC(C)c1cnn2c(NCc3ccncc3)cc(-c3cccc(Br)c3)nc12 |
| 45 | N[C@H]1CC[C@H](Oc2cc(Nc3ccc(S(=O)(=O)c4ccccc4)cc3)n3ncc(Cl)c3n2)CC1 |
| 950 | CC(C)c1cnn2c(Nc3ccc(S(C)(=O)=O)cc3)cc(OC3CCCCC3)nc12 |
| 240 | CC(C)c1cnn2c(Nc3ccc(S(=O)(=O)N(C)CCO)cc3)cc(OCCN(C)C)nc12 |
| 350 | CCc1cnn2c(Nc3ccc(C(N)=O)cc3)cc(N[C@H]3CC[C@@H](N)CC3)nc12 |
| 270 | COc1cc(Nc2cc(N[C@H]3CC[C@H](N)CC3)nc3c(Br)cnn23)ccc1S(=O)(=O)N(C)C |
| > 50000 | CSc1cc(Nc2cc(N[C@H]3CC[C@H](N)CC3)nc3ccnn23)ccc1S(=O)(=O)N(C)C |
| 305 | CCNC(=O)N[C@H]1CC[C@H](Nc2cc(Nc3ccc(S(=O)(=O)N(C)C)cc3)n3ncc(C(C)C)c3n2)CC1 |
| 11900 | CC(C)c1cnn2c(NC3CCN(S(=O)(=O)C(C)C)CC3)cc(N[C@H]3CC[C@H](N)CC3)nc12 |
